For eight compounds, IC50 and EC50 results are on record in ChEMBL document CHEMBL3612061, “Imidazopyridines as a source of biological activity and their pharmacological potentials-Infrared and Raman spectroscopic evidence of their content in pharmaceuticals and plant materials” (Bioorg Med Chem, 2015).

The test system of one test is Cerebral cortex. Kind of test: Inhibition of GABA uptake in rat cerebral cortex. It is filed as functional, tissue-based.
Test [1] can be described thus: Cytotoxicity against human SKBR3 cells. It is filed as functional, cell-based. Particulars: SK-BR-3.
In a further test the test system is MDA-MB-231. The test is described as follows: Cytotoxicity against human MDA-MB-231 cells. It is filed as functional, cell-based.
The test system of a further test is MCF7. Kind of test: Cytotoxicity against human MCF7 cells. It is filed as functional, cell-based.
A short description of test [2]: Cytotoxicity against mouse leukemia cells. It is filed as functional, cell-based. Particulars: Leukemia cell.
Test [3] has as its target T1, Type-2 angiotensin II receptor (Rattus norvegicus, UniProt P35351).
T1 sequence (P35351 whole entry): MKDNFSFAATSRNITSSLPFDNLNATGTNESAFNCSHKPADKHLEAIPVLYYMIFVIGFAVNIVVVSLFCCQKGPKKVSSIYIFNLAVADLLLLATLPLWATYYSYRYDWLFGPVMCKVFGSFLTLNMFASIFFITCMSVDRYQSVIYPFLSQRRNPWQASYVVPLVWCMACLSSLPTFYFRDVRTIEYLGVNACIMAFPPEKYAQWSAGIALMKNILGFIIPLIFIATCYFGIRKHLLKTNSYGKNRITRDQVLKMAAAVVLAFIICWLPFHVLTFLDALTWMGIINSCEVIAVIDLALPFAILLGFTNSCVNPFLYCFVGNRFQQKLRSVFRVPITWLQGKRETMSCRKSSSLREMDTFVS
The test is described as follows: Inhibition of rat AT2 receptor.

Test [4] concerns Classical swine fever virus. Kind of test: Antiviral activity against Classical swine fever virus assessed as protection of viral infection by cell based assay. It is filed as functional.
The next test concerns Yellow fever virus. Kind of test: Antiviral activity against Yellow fever virus assessed as protection against virus-induced cytopathogenic effect by cell based assay. It is filed as functional. The following applies: read-out: ID50 (the source's name). In general terms: Damage to the host cells serves as the signal in cytopathic effect assays.
For another test, the system named is Human respirovirus 3. The test is described as follows: Antiviral activity against Parainfluenza type 3 assessed as protection against virus-induced cytopathogenic effect by cell based assay. Particulars: read-out: ID50 (the source's name). It is filed as functional.
Test [5] concerns Vesicular stomatitis virus. Kind of test: Antiviral activity against Vesicular stomatitis virus assessed as protection against virus-induced cytopathogenic effect by cell based assay. It is filed as functional. The following applies: read-out: ID50 (the source's name).

Converted amounts (≈) assume the structure as drawn.

In turn, `O=C(O)C1Cc2[nH]cnc2CN1` (configuration not stated) came in with an IC50 with Cerebral cortex of 270000 nM.

For the compound `Nc1nccc2c1ncn2[C@@H]1O[C@H](CO)[C@@H](O)[C@H]1O`, the IC50 (in [1]; in the test on MDA-MB-231; in the test with MCF7) was less than 100 nM throughout.

Turning to `OC[C@H]1O[C@@H](n2cnc3/c(=N\O)[nH]cnc32)[C@H](O)[C@@H]1O`, in test [2], the IC50 was 900 nM.

In [2], `OC[C@H]1O[C@@H](n2cnc3c(NO)cc(Cl)nc32)[C@H](O)[C@@H]1O` showed an IC50 of 900 nM.

In test [3], `COc1ccc(CN2C=NC3CN(C(=O)C(c4ccccc4)c4ccccc4)C(C(=O)O)CC32)cc1C` (configuration not stated) registered an IC50 of 34 nM.

For orientation: EC50 means the concentration needed to bring the measured effect to its halfway point. Take `Brc1ccc(Cn2ccc3nc(-c4ccccc4)nc-3c2)cc1`: in test [4], the 50% effective concentration (EC50) was 800 nM.

For the compound `Nc1nccc2c1ncn2C1C=C(CO)C(O)C1O` (configuration not stated) [3-DEAZANEPLANOCIN A], the IC50 is less than 250 nM in test [1]; 0.02 µg/mL (≈ 0.0763 µM) in the test on Yellow fever virus; 0.02 µg/mL (≈ 0.0763 µM) in the test on Human respirovirus 3; less than 250 nM in the test on MDA-MB-231; less than 250 nM with MCF7; 0.02 µg/mL (≈ 0.0763 µM) in test [5].

With `Nc1ncnc2c1ncn2[C@@H]1C=C(CO)[C@@H](O)[C@H]1O` [NEOPLANOCIN A], the IC50 (in test [1]; with MDA-MB-231; in the test on MCF7) was less than 25000 nM each time.
